In US20250302799A1, “PHARMACEUTICAL COMPOSITION CONTAINING FRAXETIN FOR PREVENTION OR TREATMENT OF ENDOMETRIOSIS” (Research & Business Foundation Sungkyunkwan University, priority 2024, published 2025):

How the values were obtained:
Assay type in all cases: cell-based, human
End1/E6E7 cells [1] = experiment: Wound healing / cell migration assay; settings: End1/E6E7, 50 μM fraxetin; vehicle 88%
Experimental: (§1) To measure the effects of fraxetin on endometrial cell migration, the inventors used a migration culture dish insert from Ibidi to analyze cell mobility.
(§2) In brief, endometrial cells (VK2/E6E7, End1/E6E7) were placed in compartmentalized wells within the culture dish and cultured until they filled the compartments. Afterward, the insert separating the compartments was removed, creating a 500 μm gap for cell migration. The cells were then cultured with medium containing fraxetin at 37° C. in a 5% CO2 incubator. Cell movement across the gap was observed using an optical microscope (DM3000, Leica) and photographed, and the migration distance was calculated and quantified.

VK2/E6E7 cells [2] = experiment: Wound healing / cell migration assay; settings: vehicle 90%
Experimental: as §1, §2

End1/E6E7 cells [3] = experiment: Mitochondrial respiration (XF Cell Mitostress kit)
Experimental: (§3) To confirm the effects of fraxetin on mitochondrial respiration in endometrial cells, the inventors used an XF Cell Mitostress kit.
(§4) In brief, endometrial cells were seeded in 24-well plates and cultured at 37° C. in a 5% CO2 incubator for 16 hours, followed by treatment with […]. Subsequently, various mitochondrial respiration parameters were measured by sequential treatment with oligomycin, FCCP, rotenone, and antimycin A in the two cell lines.

VK2/E6E7 cells [4] = experiment: Mitochondrial respiration (XF Cell Mitostress kit)
Experimental: as §3, §4

VK2/E6E7 cells [5] = experiment: Mitochondrial membrane potential by JC-1 staining; settings: VK2/E6E7
endometrial cells = experiment: tiRNA expression by real-time PCR (cell line not stated); settings: following fraxetin treatment
Experimental: To confirm the expression of tiRNA (tRNA-derived stress-induced RNAs) associated with the development of endometriosis, the inventors conducted real-time PCR.
First, information on candidate tiRNA sequences and mature tRNA sources was obtained from MINTbase (https://cm.jefferson.edu/MINTbase/). miRNA CDNA synthesis was performed using a cDNA kit (Agilent Technologies) to confirm tiRNA expression, with U6 snRNA used for normalization. For transfection of the tiRNA^His GTG inhibitor (5′-AACCGAGAGUACUAACCACUAUACGAUCACCGC-3′) (40 nM), Lipofectamine 2000 was used in Opti-MEM.

End1/E6E7 cells [6] = experiment: Western blot analysis of protein expression and phosphorylation
Experimental: (§5) To analyze protein expression related to the development of endometriosis following fraxetin treatment, the inventors conducted western blot analysis.
(§6) Briefly, endometrial cells were treated with fraxetin in a dose-dependent manner or in combination with signaling pathway inhibitors. Total proteins were extracted from the treated cells, and protein quantification was performed using the Bradford protein assay (Bio-Rad, Hercules, CA, USA). The extracted proteins were then denatured at 95° C. for 5 minutes and subjected to electrophoresis on a 10% SDS/PAGE gel before being transferred to a nitrocellulose membrane. The membrane was subsequently incubated with primary and secondary antibodies, and target protein expression was analyzed using chemiluminescence detection reagents (Supersignal West Pico, Pierce, Rockford, IL, USA) with the ChemiDoc EQ system and Quantity One software (Bio-Rad).

VK2/E6E7 cells [7] = experiment: as above
Experimental: as §5, §6

End1/E6E7 cells [8] = experiment: Apoptosis by Annexin V and propidium iodide staining
Experimental: (§7) To assess the apoptosis-inducing effect of fraxetin in endometrial cells, the inventors used a FITC Annexin V Apoptosis Detection Kit I (BD Sciences).
(§8) First, VK2/E6E7 and End1/E6E7 cells were cultured in 6-well plates, treated with fraxetin in a dose-dependent manner (0 μM, […], 10 μM, 20 µM, 50 μM, 100 μM), and incubated for 48 hours at 37° C. in a 5% CO2 incubator. The cells were then detached using trypsin, washed with PBS, and mixed slowly with 1 mL of 1X binding buffer. After centrifugation, the cell pellet was resuspended in 200 μL of 1X binding buffer. The suspension (100 μL) was transferred to a 1.5 mL brown tube, and 5 μL of Annexin V and PI (propidium iodide) were added, followed by staining at room temperature for 15 minutes. After adding 400 μL of 1X binding buffer, the stained solution was transferred to a 5 mL FACS tube, and the number of apoptotic cells was measured by analyzing fluorescence intensity using flow cytometry.

VK2/E6E7 cells [9] = experiment: as above
Experimental: as §7, §8

End1/E6E7 cells [10] = experiment: Cell cycle analysis by flow cytometry (PI); settings: End1/E6E7, 48 hours
Experimental: (§9) The inventors performed flow cytometry to examine the changes in the cell cycle of endometrial cells induced by fraxetin.
(§10) In brief, 5×10^3 cells of VK2/E6E7, End1/E6E7, and T-HESC were treated with fraxetin in a dose-dependent manner (0 μM, 5 μM, 10 μM, 20 μM, 50 μM, 100 μM) and incubated for 48 hours at 37° C. in a 5% CO2 incubator.
(§11) Afterward, cells were detached from the culture plates using trypsin, washed with 0.1% BSA/PBS, and fixed in 70% ethanol for 24 hours. The cells were then washed with 0.1% BSA/PBS, treated with RNase A (Sigma), and stained with PI. The stained solution transferred to FACS tubes, and fluorescence intensity and cell cycle were analyzed using a flow cytometer.

VK2/E6E7 cells [11] = experiment: Cell cycle analysis by flow cytometry (PI); settings: VK2/E6E7, 48 hours
Experimental: as §9, §10, §11

Structure (SMILES): COc1cc2ccc(=O)oc2c(O)c1O [fraxetin]
- wound closure (End1/E6E7 cells [1]): 7%
- wound closure (VK2/E6E7 cells [2]): 18%
- ATP production (End1/E6E7 cells [3]): significantly decreased
- basal respiration (End1/E6E7 cells [3]): significantly decreased
- maximal respiration (End1/E6E7 cells [3]): significantly decreased
- reserve respiratory capacity compared to control (End1/E6E7 cells [3]): halved
- ATP production (VK2/E6E7 cells [4]): decreased
- basal respiration (VK2/E6E7 cells [4]): decreased
- relative membrane potential loss rate increase (VK2/E6E7 cells [5]): 2.6 fold
- mRNA expression of tiRNA^GlyCCC, tiRNA^ValCAC, tiRNA^AspGTC and tiRNA^GluCTC (endometrial cells): minimal change
- tiRNA^HisGTG expression (endometrial cells): increased by more than twofold
- reduction of S6 phosphorylation (End1/E6E7 cells [6]; 20 μM fraxetin, End1/E6E7): 59%
- ERK1/2 phosphorylation (End1/E6E7 cells [6]; 50 μM fraxetin, End1/E6E7): 0.51 fold
- p38 phosphorylation compared to control (End1/E6E7 cells [6]; 50 μM fraxetin, first value, End1/E6E7 assumed): 0.61 fold
- IRE1α expression (End1/E6E7 cells [6]; End1/E6E7): 1.7 fold
- expression of anti-apoptotic protein Bcl-xL (End1/E6E7 cells [6]; End1/E6E7): reduced
- inhibition of AKT phosphorylation compared to control (End1/E6E7 cells [6]; End1/E6E7): 57%
- pro-apoptotic protein BAK (End1/E6E7 cells [6]; End1/E6E7): increased
- pro-apoptotic protein BAX (End1/E6E7 cells [6]; End1/E6E7): increased
- ERK1/2 phosphorylation (VK2/E6E7 cells [7]; 50 μM fraxetin, VK2/E6E7): 0.61 fold
- p38 phosphorylation compared to control (VK2/E6E7 cells [7]; 50 μM fraxetin, second value, VK2/E6E7 assumed): 0.47 fold
- IRE1α expression (VK2/E6E7 cells [7]; VK2/E6E7): 0.53 fold
- expression of anti-apoptotic protein Bcl-xL (VK2/E6E7 cells [7]; VK2/E6E7): reduced
- pro-apoptotic protein BAK (VK2/E6E7 cells [7]; VK2/E6E7): increased
- pro-apoptotic protein BAX (VK2/E6E7 cells [7]; VK2/E6E7): increased
- early and late apoptosis cell populations (End1/E6E7 cells [8]; End1/E6E7, Example 6): tended to increase
- early and late apoptosis (End1/E6E7 cells [8]; End1/E6E7, Example 7 comparison fraxetin vs dienogest): induced both early and late apoptosis
- early and late apoptosis cell populations (VK2/E6E7 cells [9]; VK2/E6E7, Example 6): tended to increase
- early and late apoptosis (VK2/E6E7 cells [9]; VK2/E6E7, Example 7 comparison fraxetin vs dienogest): induced both early and late apoptosis
- number of cells in the Sub-G1 phase (End1/E6E7 cells [10]): increase
- number of cells in the Sub-G1 phase (VK2/E6E7 cells [11]): increase
